# Patent US20120094829A1, “Active Compound Combinations Having Insecticidal and Acaricidal Properties” (BAYER CROPSCIENCE AG, priority 2009, published 2012)
# What was measured:
# Type in all cases: in vivo
# [1] = system: Phaedon cochleariae larvae; assay: Phaedon cochleariae larvae test (sprayed cabbage leaves); conditions: single active compound
# Method: Phaedon cochleariae Larvae Test
# (§1) Solvents: 78 parts by weight of acetone • • 1.5 parts by weight of dimethylformamide
# (§2) Emulsifier: 0.5 part by weight of alkylaryl polyglycol ether
# (§3) To produce a suitable preparation of active compound, 1 part by weight of active compound is mixed with the stated amount of solvent and emulsifier, and the concentrate is diluted with emulsifier-containing water to the desired concentration.
# Cabbage leaves (Brassica oleracea) are treated by spraying with the active ingredient formulation of the desired concentration and populated with larvae of the mustard beetle (Phaedon cochleariae) while the leaves are still moist.
# After the desired period of time, the kill in % is determined. 100% means that all beetle larvae have been killed; 0% means that none of the beetle larvae have been killed. The kill rates determined are entered into Colby's formula (see above).
# Tetranychus urticae = Tetranychus urticae test (OP-resistant/spray treatment of bean leaf discs); conditions: single active compound
# Method: Tetranychus urticae Test (OP-Resistant/Spray Treatment)
# as §1, §2, §3
# Discs of bean leaves (Phaseolus vulgaris) which are infested by all stages of the greenhouse red spider mite (Tetranychus urticae) are sprayed with the active compound preparation of the desired concentration.
# After the desired period of time, the effect in % is determined. 100% means that all of the spider mites have been killed; 0% means that none of the spider mites have been killed.
# Myzus persicae = Myzus persicae test (spray treatment of infested cabbage leaves); conditions: single active compound; for Kill in % after 6d: 0.8 g/ha; for Kill in % after 1d: 4 g/ha
# Method: as §1, §2, §3
# Cabbage leaves (Brassica oleracea) which are heavily infested by the green peach aphid (Myzus persicae) are treated by spraying with the active compound preparation of the desired concentration.
# After the desired period of time, the kill in % is determined. 100% means that all of the aphids have been killed; 0% means that none of the aphids have been killed. The kill rates determined are entered into Colby's formula (see above).
# Spodoptera frugiperda = Spodoptera frugiperda test (sprayed cabbage leaves); conditions: 100 g/ha, single active compound
# Method: Spodoptera frugiperda Test
# as §1, §2, §3
# Cabbage leaves (Brassica oleracea) are treated by being sprayed with the preparation of active compound of the desired concentration and are populated with larvae of the armyworm (Spodoptera frugiperda) while the leaves are still moist.
# After the desired period of time, the kill in % is determined. 100% means that all caterpillars have been killed; 0% means that none of the caterpillars have been killed. The kill rates determined are entered into Colby's formula (see above).
Compound,Kill in % after 2d ([1]; 100 g/ha) [%],Kill in % after 2d (Tetranychus urticae; 4 g/ha) [%],Kill in % after 6d (Tetranychus urticae; 4 g/ha) [%],Kill in % after 6d (Myzus persicae) [%],Kill in % after 1d (Myzus persicae) [%],Kill in % after 6d (Spodoptera frugiperda) [%],Kill in % after 2d ([1]; 20 g/ha) [%],Kill in % after 2d (Tetranychus urticae; 20 g/ha) [%],Kill in % after 6d ([1]; 20 g/ha) [%]
"O=C1C=C(N(CCF)Cc2ccc(Cl)nc2)CO1 [compound (I-4), 4-{[(6-chloropyrid-3-yl)methyl](2-fluoroethyl)amino}furan-2(5H)-one]",33,0,0,0,20,0,,,
"O=C1C=C(N(Cc2ccc(Cl)nc2)CC(F)F)CO1 [compound (I-5), 4-{[(6-chloropyrid-3-yl)methyl](2,2-difluoroethyl)amino}furan-2(5H)-one]",,0,0,30,,,0,0,
"CN(Cc1cnc(Cl)c(F)c1)C1=CC(=O)OC1 [compound (I-6), 4-{[(6-chloro-5-fluoropyrid-3-yl)methyl](methyl)amino}furan-2(5H)-one]",,0,0,,,,,,0
"CCC(C)(C)C(=O)OC1=C(c2ccc(Cl)cc2Cl)C(=O)OC12CCCCC2 [spirodiclofen, reference compound]",,,,,0,,,,
"Cc1cc(C)c(C2=C(OC(=O)CC(C)(C)C)C3(CCCC3)OC2=O)c(C)c1 [spiromesifen, reference compound]",,20,70,,0,,,,
spirotetramat [reference compound],50,20,,20,,0,0,70,0
